Values quoted from earlier work in patent publication US8747898B2, “Controlled release oral dosage form” (Andrx Pharmaceuticals, LLC, priority 1999, dated 2014).
Where a name gives a salt, the structure may show the parent alone.

What was measured:
[1] = in words
[2] = in words; remark: listed apart in the source
[3] = test system: monoamine oxidase; conditions: in words
[4] = test system: norepinephrine uptake; conditions: in words

Compound	solubility in water [1]	permeability [2]	inhibition of monoamine oxidase [3]	blockade of norepinephrine uptake [4]	terminal T ½ (following single doses)	mean half-life of distributive phase (two-compartment model) [h]
CC(NC(C)(C)C)C(=O)c1cccc(Cl)c1 (stereo not drawn) [Bupropion hydrochloride, bupropion hydrochloride]	highly soluble	high permeability	–	–	–	–
CC(NC(C)(C)C)C(=O)c1cccc(Cl)c1 (stereo not drawn) [bupropion]	–	–	does not inhibit	weak blocker	about 14 hours	3 to 4
